Results as given in patent US20030086952A1, “Highhly concentrated emulsions of organic compounds and methos of use” (priority 2001, published 2003).
“Also recorded” adds a separate entry of the source. Marks after values point to notes of the source that are not given here.

How the values were obtained:
Assay type in all cases: physicochemical
[1] = Production of concentrated Yucca shidegera saponin emulsions in water (content reached); settings: for Ratio of saponin to emulsified molecule (by mass) / Content (by mass) of molecule in emulsion: Yucca shidegera saponin emulsion in water; for Content (by mass) of molecule in emulsion: mass fraction
Protocol: (§1) The concentrated emulsions readily re-disperse upon dilution in water to working concentrations of interest. The final concentration of saponin with respect to the organic molecule is easily obtainable at 1:50 or 1:100 w/w, or even less. The shelf life of the concentrated emulsions, either at room temperature (about 25° C.) or at refrigerator temperature (about 4° C.) is at least 1 year, although separation of an emulsion, once stably formed, has not been observed.
mulsions of some aqueous-recalcitrant compounds were prepared in water using Yucca shidegera extracts containing about 12-14% saponin, as an emulsifying agent. The saponin preparations were obtained from Danco Natural Products, Pine Valley, Calif., and are sold under the trade names Pure Yucca (about 7-14% saponin and Yucca Ultra (about 10-11% saponin). These preparations had been filtered by the supplier to remove any fibers which could interfere with the emulsification process. The components were combined as follows, using D-limonene as an example.
(§2) D-limonene (B. F. Goodrich/Kalama Chemicals, Kalama, Wash.) in the amount of 50 grams was added directly to a clean glass container. To this, 1.6 grams of yucca saponin was added. The glass container was covered tightly and agitated vigorously. A poor, partially opaque solution resulted. […] 18.4 grams water was then added such that the total weight of the three components was 70 grams. The mixture was agitated again vigorously in a capped container. A viscous, white and truly opaque emulsion resulted. […] To this, another 30 grams limonene was added while mixing to form 100 g final emulsion. The final concentration of D-limonene in the emulsion was 80% by weight. An additional 10 grams of D-limonene can be to bring the final concentration to 90% by weight.
Likewise, other organic compounds can be emulsified by combining about 50 grams of the organic compound with the fraction of saponin indicated in Table 1 and water in a sufficient amount to produce an emulsion upon mixing of the three components. Following formation of the emulsion, the amount of organic compound can be increased as desired.

[2] = Stability of the saponin emulsions (stable emulsion formed, phase separation, recrystallizing, shelf life); settings: for formation of a stable emulsion: with yucca saponin and water
Protocol: as §2, with “vigorously.” for “vigorously. A poor, partially opaque solution resulted.”, “container.” for “container. A viscous, white and truly opaque emulsion resulted.”
(§3) It is worth noting that vanillin is a solid at room termperature. The vanillin emulsion was prepared by first heating vanillin to at least 81° C. in order to melt it, then adding the other components.

[3] = Re-dilution of the concentrated emulsions in water; settings: concentrated emulsion diluted in water
Protocol: as §1
Furthermore, no two of the three components were able to form an emulsion on their own under the stated conditions. Emulsions were only possible with all three components.
as §3

Compound	Ratio of saponin to emulsified molecule (by mass) [1]	Content (by mass) of molecule in emulsion [1]	formation of a stable emulsion [2]	further results
O=CC=Cc1ccccc1 [cinnamaldehyde]	1/50	.899		
COc1cc(/C=C/C=O)ccc1O [coniferaldehyde]			did not form stable emulsions; also recorded: stable emulsions were not obtained	
C=CCc1ccc(O)c(OC)c1 [eugenol]			did not form stable emulsions; also recorded: stable emulsions were not obtained	
CC/C=C\CC1C(=O)CCC1CC(=O)OC (stereo not drawn) [methyl jasmonate]			did not form stable emulsions	
COc1cc(/C=C/C=O)cc(OC)c1O [sinapaldehyde]			did not form stable emulsions; also recorded: stable emulsions were not obtained	
cedryl acetate	1/196	.794		

Further lines, with some results ahead:

Ratio of saponin to emulsified molecule (by mass) [1]	Content (by mass) of molecule in emulsion [1]	Compound	formation of a stable emulsion [2]	further results
1/18*	.690	C=C(C)C1CC=C(C)CC1 (single isomer, unassigned; (+)) [(+) limonene]		
1/55	.534	O=C(OCc1ccccc1)c1ccccc1 [benzyl benzoate]		
1/78	.909	C=C(C)[C@H]1CC=C(C)CC1 [d-limonene, D-limonene]	stable emulsion	concentration of organic compound in the emulsion ([1]; stable saponin emulsion in water, two step mixing): 80 % by weight; phase separation of emulsion ([2]; ambient temperature, 50:12:1 D-limonene:water:saponin): will not undergo phase separation for up to two weeks; dilution of emulsion in water [3]: readily diluted up to eighty-fold
1/34	.566	COc1cc(C=O)ccc1O [vanillin]		stability of emulsion without recrystallizing ([2]; room temperature, prepared from melt (>81° C.)): stable at room temperature without recrystallizing
